According to patent US8916599B2, “1H-benz imidazole-5-carboxamides as anti-inflammatory agents” (Orexo AB, priority 2008, dated 2014):

Biological target: T1, recombinant human mPGES-1 (Homo sapiens, UniProt O14684)
T1 construct: made in house; host or cells: Rosetta E. coli (microsomal/membrane fraction)
T1 sequence (O14684 1-152): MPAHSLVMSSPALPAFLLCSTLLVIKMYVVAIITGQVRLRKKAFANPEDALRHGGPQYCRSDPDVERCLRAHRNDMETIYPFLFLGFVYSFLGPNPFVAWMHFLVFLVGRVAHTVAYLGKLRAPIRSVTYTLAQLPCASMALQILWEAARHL
Assay: mPGES-1 inhibition test (microsomes, PGH2 substrate, HTRF detection of PGE2)
Format: biochemical
Details: not given
In short: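 E. coli microsomal enzyme, 0.1 M KPi pH 7.4 + 2.5 mM GSH; cpd (DMSO) 25 min RT; PGH2 1 min; acidic FeCl2 stop. Dilute 750-fold, HTRF (d2/Eu-cryptate anti-PGE2, overnight 4 °C), 665/620 ratio vs PGE2 standard curve.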

Row | Compound | inhibition at 10 µM [%]
1 | COc1cc2[nH]c(Nc3c(Cl)cccc3Cl)nc2cc1C(=O)NCC(F)(F)C(F)(F)C(F)(F)F [Example 632, N-(2,2,3,3,4,4,4-heptafluoro-butyl)-2-(2,6-dichlorophenylamino)-6-methoxy-1H-benzimidazole-5-carboxamide] | 99

Same assay, conditions: inhibition of mPGES-1 at 1 μM (marked in cell)

Row | Compound | inhibition at 1 µM [%]
2 | COc1cc2c(cc1C(=O)Nc1ccc(Br)cc1)nc(Nc1cc(C)ccc1C(F)(F)F)n2C [Example 641, 2-(5-Methyl-2-trifluoromethyl-phenylamino)-N-(4-bromphenyl)-6-methoxy-1-methyl-1H-benzimidazol-5-carboxamide] | 97
3 | COc1cc2c(cc1C(=O)Nc1ccc(Br)cc1)nc(Nc1cc(F)ccc1C(F)(F)F)n2C [Example 642, 2-(5-Fluoro-2-trifluoromethyl-phenylamino)-N-(4-bromphenyl)-6-methoxy-1-methyl-1H-benzimidazol-5-carboxamide] | 100
4 | COc1cc2c(cc1C(=O)N[C@H]1CC[C@H](C(F)(F)F)CC1)nc(Nc1c(Cl)ccc(Cl)c1F)n2C [Example 643, 2-(3,6-Dichloro-2-fluoro-phenylamino)-6-methoxy-N-(trans-4-trifluoromethyl-cyclohex-1-yl)-1-methyl-1H-benzimidazole-5-carboxamide] | 100
5 | CC(C)Oc1cc2c(cc1C(=O)NC1CCC(C(F)(F)F)CC1)nc(Nc1c(Cl)ccc(Cl)c1F)n2C (stereo not drawn) [Example 644, 2-(3,6-Dichloro-2-fluoro-phenylamino)-6-isopropoxy-N-(4-trans-trifluoromethyl-cyclohex-1-yl)-1-methyl-1H-benzimidazole-5-carboxamide] | 96
6 | COc1cc2c(cc1C(=O)NC1CCC3(CC1)CC3)nc(Nc1c(Cl)ccc(Cl)c1F)n2C [Example 645, 2-(3,6-Dichloro-2-fluoro-phenylamino)-6-methoxy-N-(spiro[2.5]oct-6-yl)-1-methyl-1H-benzimidazole-5-carboxamide] | 100
7 | CCOc1cc2[nH]c(Nc3c(Cl)ccc(Cl)c3F)nc2cc1C(=O)NC1CCC2(CC1)CC2 [Example 646, 2-(3,6-Dichloro-2-fluoro-phenylamino)-6-ethoxy-N-(spiro[2.5]oct-6-yl)-1H-benzimidazole-5-carboxamide] | 99
8 | COc1cc2c(cc1C(=O)N[C@H]1CC[C@H](C(F)(F)F)CC1)nc(Nc1c(Cl)ccc(C)c1F)n2C [Example 647, 2-(6-Chloro-2-fluoro-3-methyl-phenylamino)-6-methoxy-N-(trans-4-trifluoromethyl-cyclohex-1-yl)-1-methyl-1H-benzimidazole-5-carboxamide] | 97
9 | CC(C)Oc1cc2c(cc1C(=O)NC1CCC3(CC1)CC3)nc(Nc1c(Cl)ccc(Cl)c1F)n2C [Example 648, 2-(3,6-Dichloro-2-fluoro-phenylamino)-6-isopropoxy-N-(spiro[2.5]oct-6-yl)-1-methyl-1H-benzimidazole-5-carboxamide] | 100
10 | Cc1ccc(Cl)c(Nc2nc3cc(C(=O)NC4CCCCC4)c(F)cc3[nH]2)c1F [Example 649, 2-(6-Chloro-2-fluoro-3-methyl-phenylamino)-N-cyclohexyl-6-fluoro-1H-benzimidazole-5-carboxamide] | 96
11 | COc1cc2c(cc1C(=O)NC1CCC(C)(C)CC1)nc(Nc1c(Cl)ccc(C)c1F)n2C [Example 650, 2-(6-Chloro-2-fluoro-3-methyl-phenylamino)-6-methoxy-N-(4,4-dimethyl-cyclohex-1-yl)-1-methyl-1H-benzimidazole-5-carboxamide] | 100
12 | COc1cc2c(cc1C(=O)NC1CCCCC1)nc(Nc1c(Cl)ccc(C)c1F)n2C [Example 651, 2-(6-Chloro-2-fluoro-3-methyl-phenylamino)-6-methoxy-N-cyclohexyl-1-methyl-1H-benzimidazole-5-carboxamide] | 100
13 | COc1cc2c(cc1C(=O)NC1CCC(C)(C)CC1)nc(Nc1c(F)c(F)cc(F)c1F)n2C [Example 652, 2-(2,3,5,6-tetrafluoro-phenylamino)-6-methoxy-N-(4,4-dimethy-cyclohex-1-yl)-1-methyl-1H-benzimidazole-5-carboxamide] | 94
14 | Cc1ccc(Cl)c(Nc2nc3cc(C(=O)N[C@H]4CC[C@H](C(F)(F)F)CC4)c(F)cc3[nH]2)c1F [Example 653, 2-(6-Chloro-2-fluoro-3-methyl-phenylamino)-N-(trans-4-trifluoromethyl-cyclohex-1-yl)-6-fluoro-1H-benzimidazole-5-carboxamide] | 92
15 | COc1cc2c(cc1C(=O)Nc1ccc(Br)cc1)nc(Nc1cccc(Cl)c1C(F)(F)F)n2C [Example 654] | 99

Same assay, conditions: inhibition of mPGES-1 at 10 μM

Row | Compound | inhibition at 10 µM [%] | % inhib. [%]
16 | O=C(Nc1ccc(Br)cc1)c1ccc2[nH]c(Nc3ccccc3OC(F)(F)F)nc2c1 [Example 106, 2-(2-Trifluoromethoxy-phenylamino)-1H-benzimidazole-5-carboxylic acid (4-bromo-phenyl)-amide] | 82 | –
17 | Cc1ccc(Cl)cc1NC(=O)c1ccc2[nH]c(Nc3c(Cl)cccc3Cl)nc2c1 [Example 110, 2-(2,6-Dichloro-phenylamino)-1H-benzimidazole-5-carboxylic acid (5-chloro-2-methyl-phenyl)-amide] | 96 | –
18 | O=C(Nc1ccccc1C(F)(F)F)c1ccc2[nH]c(Nc3c(Cl)cccc3Cl)nc2c1 [Example 113, 2-(2,6-Dichloro-phenylamino)-1H-benzimidazole-5-carboxylic acid (2-trifluoromethyl-phenyl)-amide] | 91 | –
19 | Cc1c(Cl)cccc1NC(=O)c1ccc2[nH]c(Nc3c(Cl)cccc3Cl)nc2c1 [Example 280, 2-(2,6-Dichloro-phenylamino)-1H-benzimidazole-5-carboxylic acid (3-chloro-2-methyl-phenyl)-amide] | 100 | –
20 | O=C(Nc1ccccn1)c1ccc2[nH]c(Nc3c(Cl)cccc3Cl)nc2c1 [Example 293, 2-(2,6-Dichloro-phenylamino)-1H-benzimidazole-5-carboxylic acid pyridin-2-ylamide] | 87 | –
21 | Cn1c(Nc2c(Cl)cccc2Cl)nc2cc(C(=O)Nc3cccc(Cl)c3)ccc21 [Example 297, 2-(2,6-Dichloro-phenylamino)-1-methyl-1H-benzimidazole-5-carboxylic acid (3-chloro-phenyl)-amide] | 97 | –
22 | COCCOc1cccc(NC(=O)c2ccc3c(c2)nc(Nc2c(Cl)cccc2Cl)n3C)n1 [Example 302, 2-(2,6-Dichloro-phenylamino)-1-methyl-1H-benzimidazole-5-carboxylic acid [6-(2-methoxy-ethoxy)-pyridin-2-yl]-amide] | 86 | –
23 | COc1cc2[nH]c(Nc3c(Cl)cccc3Cl)nc2cc1C(=O)Nc1ccc(C(F)(F)F)cn1 [Example 633, 2-(2,6-Dichlorophenylamino)-N-(5-trifluoromethyl-pyridin-2-yl)-6-methoxy-1H-benzimidazole-5-carboxamide] | 99 | –
24 | COc1cc2c(cc1C(=O)Nc1cc(Cl)c(C)cn1)nc(Nc1c(Cl)cccc1Cl)n2C [Example 634, 2-(2,6-Dichlorophenylamino)-N-(4-chloro-5-methyl-pyridin-2-yl)-6-methoxy-1-methyl-1H-benzimidazole-5-carboxamide] | 97 | –
25 | COc1cc2[nH]c(Nc3c(Cl)ccc(CC#N)c3Cl)nc2cc1C(=O)Nc1ccc(Br)cc1 [Example 639, 2-(2,6-Dichloro-3-cyanomethyl-phenylamino)-N-(4-bromphenyl)-6-methoxy-1H-benzimidazol-5-carboxamide] | 99 | –
26 | COc1cc2c(cc1C(=O)Nc1ccc(Br)cc1)nc(Nc1cc(C(F)(F)F)ccc1C(F)(F)F)n2C [Example 640, 2-(2,5-Di-(trifluoromethyl)-phenylamino)-N-(4-bromphenyl)-6-methoxy-1-methyl-1H-benzimidazol-5-carboxamide] | 100 | –
27 | Cc1cc2[nH]c(Nc3c(Cl)cccc3Cl)nc2cc1C(=O)NC1CCC(C(C)(C)C)CC1 (stereo not shown) [compound 148] | 100 | –
28 | Cn1c(Nc2c(Cl)cccc2Cl)nc2cc(C(=O)NC3CCCCC3)ccc21 [compound 317] | 98 | –
29 | Cc1cccc(C)c1Nc1nc2cc(C(=O)Nc3ccc(Br)cc3)ccc2n1C [compound 318] | 100 | –
30 | Cc1cccc(NC(=O)c2ccc3c(c2)nc(Nc2c(Cl)cccc2Cl)n3C)n1 [compound 328] | 95 | –
31 | O=C(Nc1ccc(Br)cc1)c1ccc2[nH]c(Nc3c(F)cccc3Cl)nc2c1 [compound 334] | 100 | –
32 | Cc1cccc(NC(=O)c2ccc3[nH]c(Nc4c(Cl)cccc4Cl)nc3c2)n1 [compound 336] | 85 | –
33 | O=C(Nc1cccc(Cl)c1)c1cc(Br)c2[nH]c(Nc3c(Cl)cccc3Cl)nc2c1 [compound 351] | 100 | –
34 | CN(C)c1ccnc(NC(=O)c2ccc3c(c2)nc(Nc2c(Cl)cccc2Cl)n3C)c1 [compound 559] | 85 | –
35 | Cc1cc(NC(=O)c2cc3nc(Nc4c(Cl)cc(F)cc4Cl)[nH]c3cc2OCC(F)(F)F)nc(C(F)(F)F)c1 [compound 576] | 96 | –
36 | N-(4-Bromophenyl)-1-methyl-2-(2-(4-morpholino)phenylamino)-1H-benzimidazole-5-carboxamide [Example 555] | – | 70

Tested on: not given
Assay: not given
Details: not given

Row | Compound | melting point [°C]
37 | O=C(Nc1ccc(Br)cc1)c1ccc2[nH]c(Nc3ccccc3OC(F)(F)F)nc2c1 [Example 106, 2-(2-Trifluoromethoxy-phenylamino)-1H-benzimidazole-5-carboxylic acid (4-bromo-phenyl)-amide] | 241 to 243
38 | Cc1ccc(Cl)cc1NC(=O)c1ccc2[nH]c(Nc3c(Cl)cccc3Cl)nc2c1 [Example 110, 2-(2,6-Dichloro-phenylamino)-1H-benzimidazole-5-carboxylic acid (5-chloro-2-methyl-phenyl)-amide] | 178 to 180
39 | O=C(Nc1ccccc1C(F)(F)F)c1ccc2[nH]c(Nc3c(Cl)cccc3Cl)nc2c1 [Example 113, 2-(2,6-Dichloro-phenylamino)-1H-benzimidazole-5-carboxylic acid (2-trifluoromethyl-phenyl)-amide] | 143 to 145
40 | Cc1c(Cl)cccc1NC(=O)c1ccc2[nH]c(Nc3c(Cl)cccc3Cl)nc2c1 [Example 280, 2-(2,6-Dichloro-phenylamino)-1H-benzimidazole-5-carboxylic acid (3-chloro-2-methyl-phenyl)-amide] | 267 to 269
41 | O=C(Nc1ccccn1)c1ccc2[nH]c(Nc3c(Cl)cccc3Cl)nc2c1 [Example 293, 2-(2,6-Dichloro-phenylamino)-1H-benzimidazole-5-carboxylic acid pyridin-2-ylamide] | 245 to 247
42 | Cn1c(Nc2c(Cl)cccc2Cl)nc2cc(C(=O)Nc3cccc(Cl)c3)ccc21 [Example 297, 2-(2,6-Dichloro-phenylamino)-1-methyl-1H-benzimidazole-5-carboxylic acid (3-chloro-phenyl)-amide] | 175 to 176
43 | COCCOc1cccc(NC(=O)c2ccc3c(c2)nc(Nc2c(Cl)cccc2Cl)n3C)n1 [Example 302, 2-(2,6-Dichloro-phenylamino)-1-methyl-1H-benzimidazole-5-carboxylic acid [6-(2-methoxy-ethoxy)-pyridin-2-yl]-amide] | 185 to 187
